Data published in publication PMC4648050, “Discovery of Inhibitors of Trypanosoma brucei by Phenotypic Screening of a Focused Protein Kinase Library” (Chemmedchem, 2015).
Converted amounts (≈) assume the structure as drawn.

What was measured:
[1] = molecular target: T1, BRSK2 (Homo sapiens, UniProt Q8IWQ3); assay: Kinase panel: BRSK2; assay type: biochemical, human/mammalian; conditions: compound at 10 μM, read-out: % of activity respect of the control
T1 sequence (Q8IWQ3 1-736): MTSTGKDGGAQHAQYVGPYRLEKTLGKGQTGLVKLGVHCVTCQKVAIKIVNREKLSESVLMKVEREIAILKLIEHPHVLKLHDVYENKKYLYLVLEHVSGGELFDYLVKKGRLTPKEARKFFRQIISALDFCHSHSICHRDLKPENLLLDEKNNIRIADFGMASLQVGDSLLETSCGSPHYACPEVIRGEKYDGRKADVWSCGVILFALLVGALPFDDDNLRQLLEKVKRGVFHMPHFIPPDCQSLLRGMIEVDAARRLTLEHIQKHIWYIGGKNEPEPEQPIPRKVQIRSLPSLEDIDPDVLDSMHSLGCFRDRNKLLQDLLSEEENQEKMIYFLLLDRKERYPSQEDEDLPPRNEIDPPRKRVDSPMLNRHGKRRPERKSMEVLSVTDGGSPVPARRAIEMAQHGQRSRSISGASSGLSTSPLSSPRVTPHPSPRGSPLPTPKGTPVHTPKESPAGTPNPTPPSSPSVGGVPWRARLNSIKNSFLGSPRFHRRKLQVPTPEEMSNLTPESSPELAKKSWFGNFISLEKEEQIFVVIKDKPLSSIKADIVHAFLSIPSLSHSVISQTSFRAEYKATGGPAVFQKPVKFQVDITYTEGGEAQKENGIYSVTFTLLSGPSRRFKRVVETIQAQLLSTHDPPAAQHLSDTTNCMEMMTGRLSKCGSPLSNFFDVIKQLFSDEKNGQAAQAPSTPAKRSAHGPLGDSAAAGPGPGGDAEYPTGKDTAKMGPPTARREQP
Protocol: (§1) The DDU kinase-focused compound set contains lead-like scaffolds that are designed to target protein kinases; they have kinase hinge binding motifs. Four of the 1H-imidazopyrazinones were screened against a human/mammalian kinase panel at the University of Dundee (http://www.kinase-screen.mrc.ac.uk) at a concentration of 10 μM. At the time of testing the panel contained 79 mammalian kinases selected to provide a broad coverage of the mammalian kinome (∼500 kinases in the human genome).[3] None of the compounds were active against any of the kinases at 10 μM.

[2] = molecular target: IGF-1R (Homo sapiens, UniProt P08069); assay: Kinase panel: IGF-1R; assay type: biochemical, human/mammalian; conditions: compound at 10 μM, read-out: % of activity respect of the control
Protocol: as §1

[3] = molecular target: EF2K (Homo sapiens, UniProt O00418); assay: Kinase panel: EF2K; assay type: biochemical, human/mammalian; conditions: compound at 10 μM, read-out: % of activity respect of the control
Protocol: as §1

[4] = molecular target: YES1 (Homo sapiens, UniProt P07947); assay: Kinase panel: YES1; assay type: biochemical, human/mammalian; conditions: compound at 10 μM, read-out: % of activity respect of the control
Protocol: as §1

[5] = molecular target: ERK1 (Homo sapiens, UniProt P27361); assay: Kinase panel: ERK1; assay type: biochemical, human/mammalian; conditions: compound at 10 μM, read-out: % of activity respect of the control
Protocol: as §1

[6] = molecular target: GSK3b (Homo sapiens, UniProt P49841); assay: Kinase panel: GSK3b; assay type: biochemical, human/mammalian; conditions: compound at 10 μM, read-out: % of activity respect of the control
Protocol: as §1

[7] = molecular target: RSK1 (Homo sapiens, UniProt Q15418); assay: Kinase panel: RSK1; assay type: biochemical, human/mammalian; conditions: compound at 10 μM, read-out: % of activity respect of the control
Protocol: as §1

[8] = molecular target: S6K1 (Homo sapiens, UniProt P23443); assay: Kinase panel: S6K1; assay type: biochemical, human/mammalian; conditions: compound at 10 μM, read-out: % of activity respect of the control
Protocol: as §1

[9] = molecular target: PKA (Homo sapiens, UniProt P17612); assay: Kinase panel: PKA; assay type: biochemical, human/mammalian; conditions: compound at 10 μM, read-out: % of activity respect of the control
Protocol: as §1

[10] = molecular target: MNK2 (Homo sapiens, UniProt Q9HBH9); assay: Kinase panel: MNK2; assay type: biochemical, human/mammalian; conditions: compound at 10 μM, read-out: % of activity respect of the control
Protocol: as §1

[11] = molecular target: p38a MAPK (Homo sapiens, UniProt Q16539); assay: Kinase panel: p38a MAPK; assay type: biochemical, human/mammalian; conditions: compound at 10 μM, read-out: % of activity respect of the control
Protocol: as §1

[12] = molecular target: MKK1 (Homo sapiens, UniProt Q02750); assay: Kinase panel: MKK1; assay type: biochemical, human/mammalian; conditions: compound at 10 μM, read-out: % of activity respect of the control
Protocol: as §1

[13] = Kinetic aqueous solubility (laser nephelometry); assay type: physicochemical; conditions: Milli-Q water with 2.5% DMSO, kinetic from dmso stock, range 250–12 μM, read-out: Aq. Sol. (aqueous kinetic solubility)
Protocol: Solubility experiments: The kinetic aqueous solubility of the test compounds was measured using laser nephelometry. Compounds were subject to serial dilution from 10 mM to 0.5 mM in DMSO. An aliquot was then mixed with Milli-Q H2O to obtain an aqueous dilution plate with a final concentration range of 250–12 μM, with a final DMSO concentration of 2.5 %. Triplicate aliquots were transferred to a flat-bottomed polystyrene plate which was immediately read on the NEPHELOstar (BMG Lab Technologies). The amount of laser scatter caused by insoluble particulates (relative nephelometry units, RNU) was plotted against compound concentration using a segmental regression fit, with the point of inflection being quoted as the compounds′ aqueous solubility (in μM).

[14] = molecular target: MNK1 (Homo sapiens, UniProt Q9BUB5); assay: Kinase panel: MNK1; assay type: biochemical, human/mammalian; conditions: compound at 10 μM, read-out: % of activity respect of the control
Protocol: as §1

[15] = molecular target: T2, CHK1 (Homo sapiens, UniProt O14757); assay: Kinase panel: CHK1; assay type: biochemical, human/mammalian; conditions: compound at 10 μM, read-out: % of activity respect of the control
T2 sequence (O14757 1-476): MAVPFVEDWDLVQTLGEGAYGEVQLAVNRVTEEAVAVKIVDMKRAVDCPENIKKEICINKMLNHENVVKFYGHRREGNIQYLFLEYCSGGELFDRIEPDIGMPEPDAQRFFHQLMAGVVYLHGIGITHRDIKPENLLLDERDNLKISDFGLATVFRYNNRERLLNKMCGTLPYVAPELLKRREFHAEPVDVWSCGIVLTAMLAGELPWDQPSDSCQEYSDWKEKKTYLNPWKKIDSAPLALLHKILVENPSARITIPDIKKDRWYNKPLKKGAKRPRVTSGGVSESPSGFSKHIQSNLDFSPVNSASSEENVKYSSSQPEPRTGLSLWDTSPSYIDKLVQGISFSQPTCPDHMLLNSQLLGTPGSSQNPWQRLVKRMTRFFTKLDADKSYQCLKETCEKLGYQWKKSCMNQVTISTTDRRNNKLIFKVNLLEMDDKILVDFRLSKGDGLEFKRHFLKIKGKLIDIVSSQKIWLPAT
Protocol: as §1

Sequence of RSK1 (Q15418 whole entry): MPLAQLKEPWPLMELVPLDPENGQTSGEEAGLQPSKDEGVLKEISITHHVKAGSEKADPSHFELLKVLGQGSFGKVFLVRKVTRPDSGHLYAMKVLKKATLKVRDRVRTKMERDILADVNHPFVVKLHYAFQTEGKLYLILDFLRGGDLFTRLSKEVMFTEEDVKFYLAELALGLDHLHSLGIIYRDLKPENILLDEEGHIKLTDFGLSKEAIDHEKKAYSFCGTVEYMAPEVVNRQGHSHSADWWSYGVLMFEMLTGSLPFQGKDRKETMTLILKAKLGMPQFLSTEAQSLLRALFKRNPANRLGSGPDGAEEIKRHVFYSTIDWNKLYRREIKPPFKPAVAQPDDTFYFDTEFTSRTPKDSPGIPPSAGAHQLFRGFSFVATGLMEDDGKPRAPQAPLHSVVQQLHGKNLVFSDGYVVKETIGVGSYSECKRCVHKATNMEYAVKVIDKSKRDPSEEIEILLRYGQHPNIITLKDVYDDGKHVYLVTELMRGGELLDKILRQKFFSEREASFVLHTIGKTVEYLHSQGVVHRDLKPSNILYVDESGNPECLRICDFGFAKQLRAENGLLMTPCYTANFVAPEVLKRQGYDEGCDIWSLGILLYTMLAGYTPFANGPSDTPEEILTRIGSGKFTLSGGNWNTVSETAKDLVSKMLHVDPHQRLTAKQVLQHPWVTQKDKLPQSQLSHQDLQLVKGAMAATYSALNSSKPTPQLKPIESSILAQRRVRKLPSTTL
Sequence of YES1 (P07947 whole entry): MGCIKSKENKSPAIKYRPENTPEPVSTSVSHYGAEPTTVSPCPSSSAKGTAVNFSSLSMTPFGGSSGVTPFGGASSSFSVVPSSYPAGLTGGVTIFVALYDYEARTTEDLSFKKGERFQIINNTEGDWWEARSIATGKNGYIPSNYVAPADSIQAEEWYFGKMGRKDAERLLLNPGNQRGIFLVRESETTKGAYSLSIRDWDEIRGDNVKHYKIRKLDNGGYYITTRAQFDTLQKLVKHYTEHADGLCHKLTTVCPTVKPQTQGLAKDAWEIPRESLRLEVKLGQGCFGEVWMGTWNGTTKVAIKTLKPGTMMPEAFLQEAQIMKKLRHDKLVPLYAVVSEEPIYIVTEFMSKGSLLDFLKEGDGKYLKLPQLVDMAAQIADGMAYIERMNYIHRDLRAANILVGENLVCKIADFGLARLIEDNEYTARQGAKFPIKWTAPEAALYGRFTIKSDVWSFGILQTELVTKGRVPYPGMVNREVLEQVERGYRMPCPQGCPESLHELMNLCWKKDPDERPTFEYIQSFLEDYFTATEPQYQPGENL
Sequence of MKK1 (Q02750 whole entry): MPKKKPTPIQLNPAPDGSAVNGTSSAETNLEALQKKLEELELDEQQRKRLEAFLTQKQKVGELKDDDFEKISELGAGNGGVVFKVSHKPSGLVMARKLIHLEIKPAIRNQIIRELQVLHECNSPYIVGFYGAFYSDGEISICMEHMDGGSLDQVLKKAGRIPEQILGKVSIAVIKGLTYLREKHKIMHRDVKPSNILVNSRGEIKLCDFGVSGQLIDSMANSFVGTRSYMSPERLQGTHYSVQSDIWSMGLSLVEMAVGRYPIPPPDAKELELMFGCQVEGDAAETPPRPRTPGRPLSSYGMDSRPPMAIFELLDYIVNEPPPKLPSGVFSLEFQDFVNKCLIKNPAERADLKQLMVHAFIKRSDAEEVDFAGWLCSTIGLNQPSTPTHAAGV
Sequence of IGF-1R (P08069 31-1367): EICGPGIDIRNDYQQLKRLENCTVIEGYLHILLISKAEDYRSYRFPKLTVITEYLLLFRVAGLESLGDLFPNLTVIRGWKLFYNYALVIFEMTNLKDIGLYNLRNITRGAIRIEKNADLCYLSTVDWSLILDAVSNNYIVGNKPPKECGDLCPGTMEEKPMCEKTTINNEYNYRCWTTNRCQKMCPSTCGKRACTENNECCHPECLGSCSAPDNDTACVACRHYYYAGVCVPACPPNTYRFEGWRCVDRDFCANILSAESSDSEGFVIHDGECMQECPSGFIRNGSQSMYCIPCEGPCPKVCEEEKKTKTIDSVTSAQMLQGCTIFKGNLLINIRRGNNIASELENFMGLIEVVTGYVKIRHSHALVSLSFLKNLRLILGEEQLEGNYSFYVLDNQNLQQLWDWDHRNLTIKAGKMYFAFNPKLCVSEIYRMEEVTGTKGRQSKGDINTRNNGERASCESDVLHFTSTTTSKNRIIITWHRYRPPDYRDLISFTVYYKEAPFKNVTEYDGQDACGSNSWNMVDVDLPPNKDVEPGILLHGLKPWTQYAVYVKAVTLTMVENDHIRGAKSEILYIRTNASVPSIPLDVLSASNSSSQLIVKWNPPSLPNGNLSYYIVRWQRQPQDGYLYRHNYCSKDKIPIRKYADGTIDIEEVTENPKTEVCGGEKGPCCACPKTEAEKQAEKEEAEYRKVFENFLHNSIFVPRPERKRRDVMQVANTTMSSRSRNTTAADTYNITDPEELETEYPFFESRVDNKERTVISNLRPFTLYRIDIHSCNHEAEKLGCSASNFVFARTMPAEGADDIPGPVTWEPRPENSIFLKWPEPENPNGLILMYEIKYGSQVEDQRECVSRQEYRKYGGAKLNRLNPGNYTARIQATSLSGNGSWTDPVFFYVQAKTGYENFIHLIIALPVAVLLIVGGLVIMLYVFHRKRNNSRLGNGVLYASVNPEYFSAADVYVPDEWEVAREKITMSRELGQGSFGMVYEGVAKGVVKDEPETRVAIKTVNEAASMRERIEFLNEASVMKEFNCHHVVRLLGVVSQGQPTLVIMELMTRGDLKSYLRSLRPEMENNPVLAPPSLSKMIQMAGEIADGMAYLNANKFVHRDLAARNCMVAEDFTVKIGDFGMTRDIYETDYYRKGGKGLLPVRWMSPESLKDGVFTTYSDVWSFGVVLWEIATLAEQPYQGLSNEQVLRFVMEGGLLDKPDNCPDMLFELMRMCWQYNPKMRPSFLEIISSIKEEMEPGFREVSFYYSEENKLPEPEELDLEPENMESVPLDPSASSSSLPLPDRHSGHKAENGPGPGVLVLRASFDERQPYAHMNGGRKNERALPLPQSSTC
Sequence of GSK3b (P49841 whole entry): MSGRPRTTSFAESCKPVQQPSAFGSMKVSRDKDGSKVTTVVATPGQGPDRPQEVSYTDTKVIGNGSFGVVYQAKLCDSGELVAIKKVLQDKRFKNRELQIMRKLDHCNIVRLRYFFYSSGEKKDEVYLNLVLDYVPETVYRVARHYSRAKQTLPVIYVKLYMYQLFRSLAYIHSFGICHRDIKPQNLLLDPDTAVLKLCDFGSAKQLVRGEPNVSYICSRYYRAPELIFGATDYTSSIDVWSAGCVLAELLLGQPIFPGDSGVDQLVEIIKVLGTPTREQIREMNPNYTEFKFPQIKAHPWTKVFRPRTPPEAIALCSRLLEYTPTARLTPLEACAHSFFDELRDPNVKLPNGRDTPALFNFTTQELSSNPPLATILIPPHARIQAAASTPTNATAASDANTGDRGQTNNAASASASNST
Sequence of MNK1 (Q9BUB5 whole entry): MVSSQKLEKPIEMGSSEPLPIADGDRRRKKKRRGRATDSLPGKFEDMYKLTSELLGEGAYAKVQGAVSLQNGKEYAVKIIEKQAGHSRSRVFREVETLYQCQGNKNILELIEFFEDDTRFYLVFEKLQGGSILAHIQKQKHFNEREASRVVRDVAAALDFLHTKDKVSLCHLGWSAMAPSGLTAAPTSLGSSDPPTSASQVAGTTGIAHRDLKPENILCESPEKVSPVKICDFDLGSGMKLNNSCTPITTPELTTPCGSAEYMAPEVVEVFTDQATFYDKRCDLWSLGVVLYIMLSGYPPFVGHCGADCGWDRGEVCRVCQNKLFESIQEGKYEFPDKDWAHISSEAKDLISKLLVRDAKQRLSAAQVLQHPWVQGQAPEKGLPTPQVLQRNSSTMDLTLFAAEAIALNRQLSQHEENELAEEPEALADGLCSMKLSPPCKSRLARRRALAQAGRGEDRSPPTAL
Sequence of ERK1 (P27361 whole entry): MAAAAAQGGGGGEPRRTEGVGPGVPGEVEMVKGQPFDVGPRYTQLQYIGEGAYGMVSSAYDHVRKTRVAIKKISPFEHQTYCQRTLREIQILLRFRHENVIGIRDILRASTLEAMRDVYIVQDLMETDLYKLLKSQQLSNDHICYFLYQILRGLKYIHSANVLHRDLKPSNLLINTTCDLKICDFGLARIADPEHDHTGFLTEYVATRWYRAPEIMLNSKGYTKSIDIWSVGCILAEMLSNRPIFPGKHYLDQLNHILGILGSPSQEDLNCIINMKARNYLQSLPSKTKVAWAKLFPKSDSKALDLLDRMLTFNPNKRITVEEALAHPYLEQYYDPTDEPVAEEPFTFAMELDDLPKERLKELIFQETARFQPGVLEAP
Sequence of p38a MAPK (Q16539 whole entry): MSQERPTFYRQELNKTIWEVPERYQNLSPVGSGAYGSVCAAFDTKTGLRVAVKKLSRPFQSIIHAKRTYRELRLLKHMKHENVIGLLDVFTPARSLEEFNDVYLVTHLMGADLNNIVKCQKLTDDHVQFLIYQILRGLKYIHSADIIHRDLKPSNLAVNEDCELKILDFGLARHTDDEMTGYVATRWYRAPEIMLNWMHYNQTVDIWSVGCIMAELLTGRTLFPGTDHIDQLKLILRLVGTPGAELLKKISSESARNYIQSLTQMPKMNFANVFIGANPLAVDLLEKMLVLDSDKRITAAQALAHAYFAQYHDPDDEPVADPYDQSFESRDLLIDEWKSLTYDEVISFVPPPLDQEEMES

Row | SMILES | remaining activity at 10 µM [1] [%] | remaining activity at 10 µM [2] [%] | remaining activity at 10 µM [3] [%] | remaining activity at 10 µM [4] [%] | remaining activity at 10 µM [5] [%] | remaining activity at 10 µM [6] [%] | remaining activity at 10 µM [7] [%] | remaining activity at 10 µM [8] [%] | remaining activity at 10 µM [9] [%] | remaining activity at 10 µM [10] [%] | remaining activity at 10 µM [11] [%] | remaining activity at 10 µM [12] [%] | solubility kinetic [13] [µM] | remaining activity at 10 µM [14] [%] | remaining activity at 10 µM [15] [%]
1 | CC(c1ccccc1)n1c(=O)[nH]c2ncc(-c3ccc(F)cc3)nc21 (stereo not drawn) [Compound 1] | 82 | 122 | 93 | 94 | 153 | 63 | 96 | 81 | 87 | 106 | 88 | 106 | < 12 | 83 | 100
2 | O=c1[nH]c2ncc(-c3ccc(F)cc3)nc2n1CC1CC1 [Compound 10] | 90 | 85 | 92 | 96 | 112 | 37 | 85 | 92 | 93 | 99 | 87 | 97 |  | 93 | 90
3 | O=c1[nH]c2ncc(-c3ccc(F)cc3)nc2n1C1CCCCC1 [Compound 12, 1-Cyclohexyl-6-(4-fluorophenyl)-1H-imidazo[4,5-b]pyrazin-2(3H)-one] | 100 | 100 | 98 | 96 | 115 | 70 | 89 | 97 | 95 | 103 | 86 | 62 | 55 (≈ 17.2 µg/mL) | 93 | 96
4 | C[C@H](c1ccccc1)n1c(=O)[nH]c2ncc(-c3ccccc3)nc21 [Compound 14, (R)-6-Phenyl-1-(1-phenylethyl)-1H-imidazo[4,5-b]pyrazin-2(3H)-one] | 72 | 112 | 79 | 71 | 105 | 66 | 89 | 65 | 72 | 97 | 88 | 87 | < 12 | 76 | 94
5 | O=c1[nH]c2ncc(-c3ccccc3CO)nc2n1C1CCCCC1 [Compound 28] |  |  |  |  |  |  |  |  |  |  |  |  | > 250 |  | 
